Source: patent US20150133537A1, “3 - (1' - ADAMANTYL) - 1 - AMINOMETHYL - 3, 4 - DIHYDRO - 5, 6 - DIHYDROXY - 1H - 2 - BENZOPYRAN FOR USE IN THE TREATMENT OF A DISEASE ASSOCIATED WITH BETA-AMYLOID INDUCED TOXICITY” (The University of Manchester, priority 2012, published 2015)
Where “and” joins values, the source holds several entries; their conditions need not be identical. Identical values can stand only once. Counter-ions that a name gives are not always drawn.

Assays:
[1] = test system: SH-SY5Y cells treated with extracellular Aβ42; test: MTT assay of cell viability in the presence of extracellular Aβ42; assay type: cell-based; conditions: for cell viability (MTT): hydrochloride
Procedure: The compound and target peptide were added simultaneously and incubated at 37° C. followed by cellular viability measurement using MTT assay. […] Data are represented as mean percentage viability, with no treatment controls set as 100%, n=3 and the error bars represent standard error.
The MTT assay provides a colorimetric analysis of cell viability by the conversion of MTT into formazan product by the mitochondrial enzyme succinate dehydrogenase. For cytotoxicity experiments cells were washed twice with Dulbecco's PBS followed by trypsinisation of cells, centrifugation at 1800 rpm and seeding the cells on 96 well flat bottom plates (Costar) in Opti-MEM media without phenol red supplemented with 1.5% FCS, 1% L-glutamine, 1% Penicillin-streptomycin (P/S) and 1% non essential amino acids (NEAA).
The cells were seeded at 1×10^5/ml density in a 96 well flat bottom plate (Costar) and incubated for 24 hr in a humidified incubator at 37° C. with 5% CO2.
After 24 hr; 50 μl of the media was removed and 10 μl of MTT (2.5 mg/ml) was added to the cells. This was followed by incubation for further 4 hr at 37° C. and 5% CO2. MTT reduction was characterized by adding 100 μl solubilization solution containing 50 ml isopropyl alcohol and 197 μl of 37% HCl. The cytotoxicity was determined by measuring the absorbance at 570 nm using Polarstar BMG labtech plate reader.
For the MTT cytotoxicity assay, A-77636 was diluted in the Opti-MEM media supplemented with 1.5% FCS, 1% P/S, 1% L-glutamine and 1% NEAA. The target compound was added to the SH-SY5Y cells at concentrations of 100 μM, 10 μM, 1 μM, 100 nM, 10 nM and 1 nM.
The cells were seeded at 1×10^5/ml density in a 96 well flat bottom plate (Costar) and incubated for 24 hr in a humidified incubator at 37° C. with 5% CO2. […] The cells were then incubated for 24 hr in the humidified incubator at 37° C. in 5% CO2.
After 24 hr; 500 of the media was removed and 10 μl of MTT (2.5 mg/ml) was added to the cells. This was followed by incubation for further 4 hr at 37° C. and 5% CO2. MTT reduction was characterized by adding 100 μl solubilization solution containing 50 ml isopropyl alcohol and 197 μl of 37% HCl. The 96 well plates were kept at room temperature for 6 hr to dissolve the formazan crystals. The cytotoxicity was determined by measuring the absorbance at 570 nm using Polarstar BMG labtech plate reader.

[2] = test system: SHSY5Y cells treated with Aβ42 (1 μM); test: Cyto Tox-One LDH (lactate dehydrogenase) release assay; assay type: cell-based; conditions: for LDH release: SHSY5Y cells, Exp 1-3 and Avg, hydrochloride;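 as to all read-outs here: fluorescent readout of resorufin formed from resazurin in proportion to released LDH (excitation 560 nm, emission 590 nm), with detergent-lysed dead cells taken as 100% maximal release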
Source text: The LDH assay provides the measure of cytotoxicity, wherein the amount of LDH released quantifies cell membrane damage, caused either by apoptosis or necrosis^13,15. The commercially available Cyto Tox-One assay (Promega; G7890) was used here which provides a fluorescent measure of LDH release, wherein the reduction of resazurin dye to resofurin is coupled through enzymatic conversion involving NADH. The generation of fluorescent dye resofurin is proportional to the amount of LDH release.
For the LDH cytotoxicity assay, A-77636 was diluted in the Opti-MEM media supplemented with 1.5% FCS, 1% P/S, 1% L-glutamine and 1% NEAA. A-77636 was added to the SHSY5Y cells at concentrations of 100 μM, 10 μM, 1 μM, 100 nM, 10 nM and 1 nM.
The cells were seeded at 1×10^5/ml density in a 96 well black, flat bottom plate (BD Biosciences) and incubated for 24 hr in a humidified incubator at 37° C. with 5% CO2. […] The final concentration of the target peptide and A-77636 within the cells was 1 μM:100 μM, 1 μM:10 μM, 1 μM:1 μM, 1 μM:100 nM, 1 μM:10 nM, and 1 μM:1 nM respectively. The cells were then incubated for 24 hr in the humidified incubator at 37° C. in 5% CO2.
After 24 hr, the 96 well plates were removed from the incubator and equilibrated at 22° C. for 30 min. The Cyto Tox-One reagent was prepared according to the manufacturer's protocol by equilibrating the substrate mix at 22° C. and thawing the assay buffer at 37° C. in a water bath. This was followed by adding 11 ml of assay buffer to each vial of substrate mix. 100 μl of Cyto Tox-One reagent was added to each well. The preparation and addition of Cyto Tox-One reagent was undertaken in the dark to avoid increased background fluorescence and stored at −20° C. until required. The cells were further incubated at 22° C. for 10 min followed by addition of stop solution to the wells in the same order as that of the Cyto Tox-One reagent to avoid increased variation in the results. The stop solution stops formation of fluorescent product resofurin. The maximum LDH release (set as 100%) for each experiment was determined by adding 2 μl of lysis solution (9% triton X 100, Promega) to the cells prior to the addition of Cyto Tox-One reagent, providing a dead cell control. […] The 96 well plates were then kept on the shaker for 10 sec and the fluorescence was measured immediately with an excitation at 560 nm and emission at 590 nm using a Polarstar BMG plate reader.

[3] = test system: Parkinson's disease in animal models; conditions: known, reference 9; cited from earlier work
[4] = known, reference 16; cited from earlier work

## Br.C=CCN1CCc2c(cc(O)c(O)c2Br)[C@@H](c2ccccc2)C1 [Compound A, R(+)-6-Bromo-7,8-dihydroxy-3-allyl-1-phenyl-2,3,4,5-tetrahydro-1H-3-benzazepine hydrobromide, reference compound]
[1]; D1 receptor agonist screen, SH-SY5Y cells, Aβ42 (1 μM), 24 hr, MTT
  inhibition of Aβ42 toxicity: partial inhibition
[1]; D1 receptor agonist screen, SH-SY5Y cells, added simultaneously with Aβ42 (1 μM), 24 hr, no treatment controls = 100%, p<0.05
  cellular viability (MTT): 81%

## NC[C@@H]1O[C@H](C23CC4CC(CC(C4)C2)C3)Cc2c1ccc(O)c2O [Compound A-77636, (1R,3S) 3-(1′-adamantyl)-1-aminomethyl-3,4-dihydro-5,6-dihydroxy-1H-2-benzopyran hydrochloride]
[2]; A-77636 at 100 μM, 1 μM Aβ42
  toxicity in LDH assay: possibly toxic
[2]; 1 μM Aβ42 + 1 nM A-77636, 24 hr
  LDH release: 35% and 38% and 61%
[2]; 1 μM Aβ42 + 1 nM A-77636, 24 hr, mean
  LDH release: 45%
[2]; 1 μM Aβ42 + 10 nM A-77636, 24 hr
  LDH release: 35% and 39% and 56%
[2]; 1 μM Aβ42 + 10 nM A-77636, 24 hr, mean
  LDH release: 43%
[2]; 1 μM Aβ42 + 100 nM A-77636, 24 hr
  LDH release: 20% and 23% and 32%
[2]; 1 μM Aβ42 + 100 nM A-77636, 24 hr, mean
  LDH release: 25%
[2]; 1 μM Aβ42 + 1 μM A-77636, 24 hr
  LDH release: 27% and 48% and 43%
[2]; 1 μM Aβ42 + 1 μM A-77636, 24 hr, mean
  LDH release: 39%
[2]; 1 μM Aβ42 + 10 μM A-77636, 24 hr
  LDH release: 33% and 47% and 52%
[2]; 1 μM Aβ42 + 10 μM A-77636, 24 hr, mean
  LDH release: 44%
[2]; 1 μM Aβ42 + 100 μM A-77636, 24 hr, LDH max (dead cells) = 100
  LDH release: 61% and 53% and 64%
[2]; all concentrations from 100 μM to 1 nM, 1 μM Aβ42
  effect on Aβ42 toxicity in LDH assay: reduces Aβ42 toxicity
[1]; 1 μM A-77636, 1 μM Aβ42, MTT, Table 1
  inhibition of the toxic effects of Aβ42: capable of inhibiting the toxic effects of Aβ42
[1]; A-77636 at 1 nM, SH-SY5Y cells with 1 μM Aβ42
  activity against Aβ42 toxicity in MTT assay: inactive
[1]; A-77636 at 100 μM, SH-SY5Y cells with 1 μM Aβ42
  toxicity in MTT assay: toxic
[1]; A-77636 from 10 nM to 10 μM, SH-SY5Y cells with 1 μM Aβ42
  activity against Aβ42 toxicity in MTT assay: active
[1]; SH-SY5Y cells, 1 μM Aβ42 + 1 μM A-77636, 24 hr, Aβ42 −ve cells = 100%, Experiments 1-3 and Average
  cell viability (MTT): 82% and 69% and 92%
[1]; SH-SY5Y cells, 1 μM Aβ42 + 1 μM A-77636, 24 hr, Aβ42 −ve cells = 100%, Experiments 1-3 and Average, mean
  cell viability (MTT): 81%
[1]; SHSY5Y cells, 1 μM Aβ42 + 1 nM A-77636, 24 hr, Exp 1-3 and Avg
  cell viability (MTT): 71% and 67%
[1]; SHSY5Y cells, 1 μM Aβ42 + 1 nM A-77636, 24 hr, Exp 1-3 and Avg, mean of three experiments
  cell viability (MTT): 68%
[1]; SHSY5Y cells, 1 μM Aβ42 + 10 nM A-77636, 24 hr, Exp 1-3 and Avg
  cell viability (MTT): 80% and 74% and 84%
[1]; SHSY5Y cells, 1 μM Aβ42 + 10 nM A-77636, 24 hr, Exp 1-3 and Avg, mean of three experiments
  cell viability (MTT): 79%
[1]; SHSY5Y cells, 1 μM Aβ42 + 100 nM A-77636, 24 hr, Exp 1-3 and Avg
  cell viability (MTT): 78% and 74% and 81%
[1]; SHSY5Y cells, 1 μM Aβ42 + 100 nM A-77636, 24 hr, Exp 1-3 and Avg, mean of three experiments
  cell viability (MTT): 77%
[1]; SHSY5Y cells, 1 μM Aβ42 + 1 μM A-77636, 24 hr, Exp 1-3 and Avg (Table 2)
  cell viability (MTT): 87% and 90% and 86%
[1]; SHSY5Y cells, 1 μM Aβ42 + 10 μM A-77636, 24 hr, Exp 1-3 and Avg
  cell viability (MTT): 84% and 81% and 86%
[1]; SHSY5Y cells, 1 μM Aβ42 + 10 μM A-77636, 24 hr, Exp 1-3 and Avg, mean of three experiments
  cell viability (MTT): 83%
[1]; SHSY5Y cells, 1 μM Aβ42 + 100 μM A-77636, 24 hr, Exp 1-3 and Avg
  cell viability (MTT): 9% and 4%
[1]; SHSY5Y cells, 1 μM Aβ42 + 100 μM A-77636, 24 hr, Exp 1-3 and Avg, mean of three experiments
  cell viability (MTT): 6%
[3]
  activity against Parkinson's disease in animal models: activity against Parkinson's disease
[4]
  crossing of the blood-brain barrier: cross the blood-brain barrier
